Measurements from ChEMBL document CHEMBL1201862, “PubChem BioAssay data set” (2004).
Activity calls are given as the source filed them.

How the values were obtained:
Cysteine protease ATG4B = molecular target: T1, Cysteine protease ATG4B (Homo sapiens, UniProt Q9Y4P1); format: functional;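 further: Fluorescence-based dose-response confirmation assay measuring inhibition of ATG4B activity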
T1 sequence (Q9Y4P1 whole entry): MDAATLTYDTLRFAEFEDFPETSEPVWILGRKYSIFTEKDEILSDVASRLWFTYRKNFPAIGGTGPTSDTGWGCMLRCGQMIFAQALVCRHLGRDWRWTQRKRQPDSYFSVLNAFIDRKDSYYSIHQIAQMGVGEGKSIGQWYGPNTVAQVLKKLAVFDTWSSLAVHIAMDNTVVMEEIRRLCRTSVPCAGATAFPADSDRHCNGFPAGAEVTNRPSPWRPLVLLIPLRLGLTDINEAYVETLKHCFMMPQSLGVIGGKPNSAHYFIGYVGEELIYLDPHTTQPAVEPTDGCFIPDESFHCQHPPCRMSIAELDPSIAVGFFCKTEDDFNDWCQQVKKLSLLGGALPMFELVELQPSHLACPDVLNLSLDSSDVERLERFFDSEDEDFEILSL

[1] = molecular target: T2, Zinc finger protein mex-5 (Caenorhabditis elegans, UniProt Q9XUB2); test: MEX-5/TCR-2 RNA interaction inhibitors, dose response, biochemical, C. elegans, fluorescence polarization (AID 1960)
T2 sequence (Q9XUB2 whole entry): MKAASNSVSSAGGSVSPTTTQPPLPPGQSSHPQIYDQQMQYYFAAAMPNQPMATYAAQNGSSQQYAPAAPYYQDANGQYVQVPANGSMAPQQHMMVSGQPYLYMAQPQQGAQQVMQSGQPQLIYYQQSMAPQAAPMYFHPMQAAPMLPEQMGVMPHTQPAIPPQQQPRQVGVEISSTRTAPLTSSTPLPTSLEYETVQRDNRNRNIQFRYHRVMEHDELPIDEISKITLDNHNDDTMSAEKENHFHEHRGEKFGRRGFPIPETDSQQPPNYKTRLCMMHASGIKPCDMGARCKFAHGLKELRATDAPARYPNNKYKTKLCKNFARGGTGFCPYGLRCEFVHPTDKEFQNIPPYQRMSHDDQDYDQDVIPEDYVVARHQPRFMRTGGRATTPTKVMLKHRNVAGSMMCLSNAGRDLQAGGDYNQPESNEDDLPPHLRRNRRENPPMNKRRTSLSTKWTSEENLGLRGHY

Nonstructural protein 1 = Nonstructural protein 1 (Influenza A virus, UniProt Q194T2); format: functional, Influenza A virus (A/California/07/2009(H1N1))
Nonstructural protein 1, sequence (Q194T2 whole entry): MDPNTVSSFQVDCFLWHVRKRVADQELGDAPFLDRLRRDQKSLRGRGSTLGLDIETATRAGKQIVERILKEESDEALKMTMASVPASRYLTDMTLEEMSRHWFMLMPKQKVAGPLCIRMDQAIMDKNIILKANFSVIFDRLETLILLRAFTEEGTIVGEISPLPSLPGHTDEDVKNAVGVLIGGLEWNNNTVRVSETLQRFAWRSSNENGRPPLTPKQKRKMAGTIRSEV

SUMO-activating enzyme [2] = molecular target: T3, SUMO-activating enzyme (Homo sapiens, UniProt Q9UBT2); test: SUMOylation inhibitor hit validation, confirmation, SUMOylation inhibitor project, biochemical, AlphaScreen (AID 2018); format: functional
T3 sequence (Q9UBE0 whole entry): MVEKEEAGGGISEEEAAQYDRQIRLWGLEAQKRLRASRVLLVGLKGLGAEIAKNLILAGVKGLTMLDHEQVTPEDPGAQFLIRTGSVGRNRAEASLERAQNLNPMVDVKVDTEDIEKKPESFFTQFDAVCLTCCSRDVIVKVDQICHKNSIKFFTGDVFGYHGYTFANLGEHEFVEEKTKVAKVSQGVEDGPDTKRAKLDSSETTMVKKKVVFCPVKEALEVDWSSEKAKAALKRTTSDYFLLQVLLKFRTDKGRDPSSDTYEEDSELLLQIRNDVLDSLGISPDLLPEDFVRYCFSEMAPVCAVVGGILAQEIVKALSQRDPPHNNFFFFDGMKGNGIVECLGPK
T3 sequence (Q9UBT2 whole entry): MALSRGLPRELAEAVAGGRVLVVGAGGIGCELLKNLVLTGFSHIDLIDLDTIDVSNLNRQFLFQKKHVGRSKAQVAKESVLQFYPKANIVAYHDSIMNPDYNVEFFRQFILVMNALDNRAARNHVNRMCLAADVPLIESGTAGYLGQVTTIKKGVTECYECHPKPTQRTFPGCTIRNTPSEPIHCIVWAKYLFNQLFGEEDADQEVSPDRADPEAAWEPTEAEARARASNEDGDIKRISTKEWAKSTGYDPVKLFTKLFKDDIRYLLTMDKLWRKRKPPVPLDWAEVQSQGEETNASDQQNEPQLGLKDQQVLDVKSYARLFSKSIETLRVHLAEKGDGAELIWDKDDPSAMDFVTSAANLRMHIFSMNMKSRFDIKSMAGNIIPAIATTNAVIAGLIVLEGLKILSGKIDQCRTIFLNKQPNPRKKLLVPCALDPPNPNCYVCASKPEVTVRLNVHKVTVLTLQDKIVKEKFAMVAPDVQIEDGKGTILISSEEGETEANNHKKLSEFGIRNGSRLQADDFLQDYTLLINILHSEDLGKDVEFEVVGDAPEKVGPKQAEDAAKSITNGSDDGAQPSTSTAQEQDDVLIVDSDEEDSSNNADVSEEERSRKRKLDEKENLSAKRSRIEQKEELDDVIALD

Bcl-2-like protein 1 = Bcl-2-like protein 1 (Homo sapiens, UniProt Q07817); test: BCL-XL inhibitors, dose response, selectivity assay for MCL1 inhibitor project, biochemical, fluorescence polarization, 1536-well (AID 2218)
Bcl-2-like protein 1, sequence (Q07817 whole entry): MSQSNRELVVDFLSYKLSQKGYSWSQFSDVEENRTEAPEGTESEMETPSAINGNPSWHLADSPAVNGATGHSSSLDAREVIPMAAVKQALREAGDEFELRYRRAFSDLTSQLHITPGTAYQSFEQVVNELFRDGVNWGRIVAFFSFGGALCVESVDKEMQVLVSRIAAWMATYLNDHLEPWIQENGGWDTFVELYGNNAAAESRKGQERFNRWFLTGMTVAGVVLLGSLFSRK

[3] = molecular target: Protein disulfide-isomerase (Homo sapiens, UniProt P07237); test: PDI inhibitors, insulin aggregation turbidity, dose response, biochemical, absorbance, cherry-picked samples (AID 602350); format: functional
Protein disulfide-isomerase, sequence (P07237 whole entry): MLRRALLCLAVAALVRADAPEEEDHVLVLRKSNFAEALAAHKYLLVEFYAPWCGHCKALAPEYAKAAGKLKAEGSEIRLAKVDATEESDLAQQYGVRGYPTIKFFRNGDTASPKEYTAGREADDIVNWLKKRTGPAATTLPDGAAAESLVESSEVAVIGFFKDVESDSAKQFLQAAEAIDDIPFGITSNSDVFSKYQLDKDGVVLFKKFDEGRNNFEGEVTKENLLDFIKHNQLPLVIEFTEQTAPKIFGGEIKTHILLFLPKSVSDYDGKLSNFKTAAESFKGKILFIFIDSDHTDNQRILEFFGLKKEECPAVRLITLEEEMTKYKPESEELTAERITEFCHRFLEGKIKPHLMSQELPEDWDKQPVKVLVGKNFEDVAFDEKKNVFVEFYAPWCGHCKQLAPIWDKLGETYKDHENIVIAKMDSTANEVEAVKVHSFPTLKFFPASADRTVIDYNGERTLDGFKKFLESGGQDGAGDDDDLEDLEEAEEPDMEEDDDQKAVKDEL

[4] = molecular target: DNA (cytosine-5)-methyltransferase 1 (Homo sapiens, UniProt P26358); test: DNMT1 methyltransferase inhibitors, confirmation, biochemical, fluorescent molecular beacon (AID 602386); format: functional
Genome polyprotein = Genome polyprotein (dengue virus type 2, UniProt P29990); test: Dengue-2 NS5 methyltransferase inhibitors, primary screen, biochemical, confirmation dose response (AID 588689); format: functional
Genome polyprotein, sequence (P29990 2492-3391 limits assumed): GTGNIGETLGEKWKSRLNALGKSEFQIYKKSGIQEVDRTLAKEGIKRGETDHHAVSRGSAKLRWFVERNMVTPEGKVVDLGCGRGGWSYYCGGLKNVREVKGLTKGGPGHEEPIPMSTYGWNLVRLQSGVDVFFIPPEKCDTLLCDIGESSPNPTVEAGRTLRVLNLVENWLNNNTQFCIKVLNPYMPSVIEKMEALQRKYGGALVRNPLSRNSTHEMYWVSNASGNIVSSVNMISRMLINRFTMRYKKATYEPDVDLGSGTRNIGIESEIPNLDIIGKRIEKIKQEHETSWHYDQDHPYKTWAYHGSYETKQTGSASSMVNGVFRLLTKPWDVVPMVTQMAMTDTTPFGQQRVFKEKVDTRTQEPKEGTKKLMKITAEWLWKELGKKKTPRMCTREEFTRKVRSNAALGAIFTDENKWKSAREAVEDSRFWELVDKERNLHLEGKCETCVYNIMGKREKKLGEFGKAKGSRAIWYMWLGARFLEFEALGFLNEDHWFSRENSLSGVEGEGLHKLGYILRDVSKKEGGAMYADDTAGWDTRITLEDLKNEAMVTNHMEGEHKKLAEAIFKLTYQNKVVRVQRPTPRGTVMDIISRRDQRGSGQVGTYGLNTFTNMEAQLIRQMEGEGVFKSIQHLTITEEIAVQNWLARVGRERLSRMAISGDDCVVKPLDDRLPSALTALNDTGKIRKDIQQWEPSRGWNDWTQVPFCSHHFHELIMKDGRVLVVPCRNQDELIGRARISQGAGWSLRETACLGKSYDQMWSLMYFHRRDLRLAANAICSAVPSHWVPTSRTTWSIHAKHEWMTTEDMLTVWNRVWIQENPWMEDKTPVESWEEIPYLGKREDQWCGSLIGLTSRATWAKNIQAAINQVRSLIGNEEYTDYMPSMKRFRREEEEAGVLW

Phospholipase A2 = Phospholipase A2 (Homo sapiens, UniProt P04054); format: functional;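 further: confirmatory dose-response counterscreen on phospholipase A2, testing hits that came from an ultra-high-throughput screen for ATG4B inhibitors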
Phospholipase A2, sequence (P04054 whole entry): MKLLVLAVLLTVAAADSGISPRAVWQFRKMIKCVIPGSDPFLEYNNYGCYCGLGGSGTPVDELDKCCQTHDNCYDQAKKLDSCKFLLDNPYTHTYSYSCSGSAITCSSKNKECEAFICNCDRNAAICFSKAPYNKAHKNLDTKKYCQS

Large T antigen = Large T antigen (Simian virus 40, UniProt P03070); format: functional, Betapolyomavirus macacae;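 further: Confirmatory-stage PubChem screen for compounds that inhibit SV40 T antigen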
Large T antigen, sequence (P03070 whole entry): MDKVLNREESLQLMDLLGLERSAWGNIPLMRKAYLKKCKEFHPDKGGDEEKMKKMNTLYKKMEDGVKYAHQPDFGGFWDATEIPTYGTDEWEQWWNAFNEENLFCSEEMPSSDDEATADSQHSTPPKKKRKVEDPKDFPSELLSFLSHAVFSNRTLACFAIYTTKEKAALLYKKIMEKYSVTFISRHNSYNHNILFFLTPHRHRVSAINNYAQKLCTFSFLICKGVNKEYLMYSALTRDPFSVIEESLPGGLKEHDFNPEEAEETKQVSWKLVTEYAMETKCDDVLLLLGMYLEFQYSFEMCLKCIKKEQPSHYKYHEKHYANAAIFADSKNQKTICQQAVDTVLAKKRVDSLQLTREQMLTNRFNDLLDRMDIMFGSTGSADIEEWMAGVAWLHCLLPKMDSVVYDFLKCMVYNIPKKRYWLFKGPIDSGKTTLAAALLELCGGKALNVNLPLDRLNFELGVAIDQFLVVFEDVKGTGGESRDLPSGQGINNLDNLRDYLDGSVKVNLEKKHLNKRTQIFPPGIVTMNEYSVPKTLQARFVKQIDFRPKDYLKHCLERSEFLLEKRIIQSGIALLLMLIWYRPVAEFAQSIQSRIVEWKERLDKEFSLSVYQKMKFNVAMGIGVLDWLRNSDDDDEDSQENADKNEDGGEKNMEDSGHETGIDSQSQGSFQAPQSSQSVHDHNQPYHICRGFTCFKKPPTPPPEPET

Leucine aminopeptidase = molecular target: T4, Leucine aminopeptidase (Plasmodium falciparum 3D7, UniProt Q8IL11); test: P. falciparum M17LAP inhibitors, primary screen, biochemical, fluorogenic H-Leu-NHMec substrate, 1536-well (AID 1619); format: functional
T4 sequence (Q8IL11 whole entry): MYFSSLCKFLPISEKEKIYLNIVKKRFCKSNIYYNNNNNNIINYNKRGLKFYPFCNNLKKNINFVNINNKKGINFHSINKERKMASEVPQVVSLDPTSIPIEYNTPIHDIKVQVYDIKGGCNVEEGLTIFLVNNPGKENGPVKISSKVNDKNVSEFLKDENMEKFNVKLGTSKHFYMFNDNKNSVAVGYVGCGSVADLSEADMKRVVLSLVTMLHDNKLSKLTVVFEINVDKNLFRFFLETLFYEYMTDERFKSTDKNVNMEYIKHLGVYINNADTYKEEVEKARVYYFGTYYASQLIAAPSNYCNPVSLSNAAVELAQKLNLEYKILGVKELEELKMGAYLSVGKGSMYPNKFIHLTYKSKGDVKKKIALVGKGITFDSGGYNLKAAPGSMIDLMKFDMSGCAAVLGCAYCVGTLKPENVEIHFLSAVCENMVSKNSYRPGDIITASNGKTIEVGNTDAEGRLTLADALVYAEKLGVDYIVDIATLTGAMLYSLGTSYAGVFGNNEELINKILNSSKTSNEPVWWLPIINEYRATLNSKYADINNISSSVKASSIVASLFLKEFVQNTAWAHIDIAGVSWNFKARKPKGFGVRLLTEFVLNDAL

SUMO-activating enzyme [5] = molecular target: T3, SUMO-activating enzyme; test: inhibitors of in vitro SUMOylation cascade, primary screen, biochemical, HTRF, uHTS (AID 2006); format: protein-complex assay
[6] = molecular target: T5, RNA-binding protein pos-1 (Caenorhabditis elegans, UniProt G5EF15); test: inhibitors of POS-1/mex-3 RNA binding, dose response, biochemical, fluorescence polarization (AID 1964);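 further: purified POS-1 fused to maltose binding protein made in E. coli; potency of compounds blocking POS-1 binding to fluorescent RNA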
T5 sequence (G5EF15 whole entry): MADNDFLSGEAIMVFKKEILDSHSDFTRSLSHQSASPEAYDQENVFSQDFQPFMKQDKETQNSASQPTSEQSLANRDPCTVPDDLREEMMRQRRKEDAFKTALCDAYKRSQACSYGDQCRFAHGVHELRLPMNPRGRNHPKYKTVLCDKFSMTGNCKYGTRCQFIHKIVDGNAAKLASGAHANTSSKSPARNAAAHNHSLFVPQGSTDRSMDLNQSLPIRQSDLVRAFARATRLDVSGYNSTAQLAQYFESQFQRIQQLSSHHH

[7] = molecular target: T6, Induced myeloid leukemia cell differentiation protein Mcl-1 (Homo sapiens, UniProt Q07820); test: MCL1-BIM BH3 interaction inhibitors, dose response, biochemical, fluorescence polarization, BIM-BH3 peptide, 1536-well (AID 2217)
T6 sequence (Q07820 whole entry): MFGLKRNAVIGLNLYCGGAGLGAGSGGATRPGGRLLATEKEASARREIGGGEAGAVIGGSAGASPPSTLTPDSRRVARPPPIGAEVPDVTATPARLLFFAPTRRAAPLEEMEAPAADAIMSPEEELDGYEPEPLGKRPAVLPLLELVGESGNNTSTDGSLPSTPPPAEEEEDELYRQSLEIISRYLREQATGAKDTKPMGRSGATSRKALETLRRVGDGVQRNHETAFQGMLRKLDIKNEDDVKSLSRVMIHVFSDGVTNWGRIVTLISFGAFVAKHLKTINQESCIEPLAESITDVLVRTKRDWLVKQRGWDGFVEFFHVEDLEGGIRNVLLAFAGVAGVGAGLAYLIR

[8] = molecular target: T6, Induced myeloid leukemia cell differentiation protein Mcl-1; format: functional
[9] = inhibitors of Bluetongue virus cytopathic effect, confirmation, arbovirus, BSR cells (AID 1250); format: functional;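 further: protection from viral cytopathic effect measured as cell viability by ATP luminescence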
[10] = molecular target: T7, Calpain-2 catalytic subunit (Sus scrofa, UniProt P43367); test: pig calpain II inhibitor potency, dose response, biochemical, fluorogenic peptide substrate (AID 1420); format: functional
T7 sequence (P43367 whole entry): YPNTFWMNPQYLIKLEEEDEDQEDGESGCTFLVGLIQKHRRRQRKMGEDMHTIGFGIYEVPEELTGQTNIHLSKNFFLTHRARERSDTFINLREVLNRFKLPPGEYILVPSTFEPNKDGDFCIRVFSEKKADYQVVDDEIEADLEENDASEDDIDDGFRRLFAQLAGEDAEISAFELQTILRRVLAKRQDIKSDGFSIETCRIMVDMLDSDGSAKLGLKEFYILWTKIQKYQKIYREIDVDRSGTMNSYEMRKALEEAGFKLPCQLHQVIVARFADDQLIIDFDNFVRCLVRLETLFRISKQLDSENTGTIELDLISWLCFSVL

Estrogen receptor = molecular target: T8, Estrogen receptor (Homo sapiens, UniProt P03372); test: potentiators of ERα–SRC-1 coactivator binding, dose response, biochemical, TR-FRET, ERα LBD (AID 737)
T8 sequence (P03372 whole entry): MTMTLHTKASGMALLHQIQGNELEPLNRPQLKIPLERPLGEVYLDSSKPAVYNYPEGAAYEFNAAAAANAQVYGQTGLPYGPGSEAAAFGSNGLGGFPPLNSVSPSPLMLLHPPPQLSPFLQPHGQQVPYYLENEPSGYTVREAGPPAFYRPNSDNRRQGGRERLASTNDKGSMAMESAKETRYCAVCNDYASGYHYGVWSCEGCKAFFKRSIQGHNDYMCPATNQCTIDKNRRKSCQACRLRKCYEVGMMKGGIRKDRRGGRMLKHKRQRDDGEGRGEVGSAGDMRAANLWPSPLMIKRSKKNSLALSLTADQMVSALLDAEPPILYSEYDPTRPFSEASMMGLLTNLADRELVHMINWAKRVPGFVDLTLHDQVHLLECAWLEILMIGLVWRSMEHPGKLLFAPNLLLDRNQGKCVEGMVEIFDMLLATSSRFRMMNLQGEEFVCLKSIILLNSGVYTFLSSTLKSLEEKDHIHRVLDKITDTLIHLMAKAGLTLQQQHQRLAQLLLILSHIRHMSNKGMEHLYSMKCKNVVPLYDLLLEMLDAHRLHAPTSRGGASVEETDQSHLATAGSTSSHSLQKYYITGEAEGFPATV

[11] = Luminescence Cell-Based Dose Confirmation to Identify Activators of 5'UTR Stem-Loop Driven Alpha-Synuclein mRNA Translation in H4 Neuroglioblastoma Cells. [Related pubchem assays: 1829 (Project Summary), 1814 (Primary HTS)]; format: functional
[12] = Luminescence Cell-Based Dose Response HTS to Identify Activators of Luciferase Translation or Activity in H4 […] Cells. [Related pubchem assays: 1829 (Project Summary), 1814 (Primary HTS)]; format: functional
[13] = Luminescence Cell-Based Dose Response to Identify Activators of 5'UTR Stem-Loop Driven Prion Protein mRNA Translation in H4-C Neuroglioblastoma Cells. [Related pubchem assays: 1829 (Project Summary), 1814 (Primary HTS)]; format: functional
[14] = Luminescence Cell-Based Dose Response to Identify Activators of Luciferase Translation or Activity in H4-C Neuroglioblastoma Cells. [Related pubchem assays: 1829 (Project Summary), 1814 (Primary HTS)]; format: functional
BJ [15] = test: cytotoxicity toward BJ-TERT-LT-ST fibroblasts, dose response, cell-based, RAS-independent, luminescence (AID 1935); format: functional; conditions: Homo sapiens;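 further: BJ fibroblasts immortalized with TERT plus LT and ST oncogenes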
[16] = Luminescence-based dose response cell-based high throughput screening assay for cytotoxic compounds using the IEC-6 intestinal epithelial cell line. [Related pubchem assays: 1858 (Summary AID.), 1825 (Counterscreen.), 1907 (Confirmation screen.)]; format: functional
[17] = cytotoxicity in HEK-293T cells, dose response, cytotoxicity control for TCR NF-kB inhibitor project, luminescence, T-cell screen hits (AID 489026); format: functional, cell-based;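 further: cells exposed to compound about 14 hours before the viability readout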
BJ [18] = test: cells; format: functional, cell-based; conditions: Homo sapiens
[19] = inhibitors of intracellular T. cruzi replication, confirmation, NIH3T3 host cells, beta-gal luminescence (AID 2044); format: functional, cell-based;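 further: intracellular parasites grown in NIH/3T3 mouse fibroblasts as host cells; luminescent beta-galactosidase reporter signal from transgenic T. cruzi replicating inside host cells; inhibitors lower the luminescence signal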
[20] = HEK293 cell cytotoxicity, dose response, cytotoxicity control, dry powder samples (AID 720567); format: functional, cell-based
[21] = cytotoxicity toward DRD oncogenic fibroblasts, dose response, cell-based, non-viral oncogenic, luminescence (AID 1934); format: functional; conditions: Homo sapiens
BJ [22] = test: cytotoxicity toward BJ-TERT fibroblasts, dose response, cell-based, RAS-independent, luminescence (AID 1933); format: functional; conditions: Homo sapiens
[23] = cytotoxicity toward NIH3T3 fibroblasts, dose response, counter-screen, cell-based, ATP luminescence, mouse fibroblasts (AID 2010); format: functional;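 further: cells exposed to compound for about 90 hours before reading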
[24] = M. tuberculosis H37Rv growth inhibitors, H37Rv strain (AID 1626); format: functional
[25] = growth induction of Burl-1 ts yeast mutant, dose response, counter-screen for SUMOylation pathway inhibitor project, whole organism, S. cerevisiae, luminescence (AID 463199); format: functional
H9c2 = test: cells; format: functional, cell-based; conditions: Rattus norvegicus, H9c2, Myocardium;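 further: confirmatory concentration-response retest of ultra-high-throughput screening hits for modulation of myocardial damage; cell death induced by hydrogen peroxide oxidative stress; compound pretreatment for 60 min then peroxide exposure for 2 h; potency is for protecting the cells against peroxide damage rather than for killing them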
[26] = molecular target: Neuropeptide Y receptor type 1 (Homo sapiens, UniProt P25929); format: functional;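 further: HEK293 cells with a CNG channel challenged with NPY then isoproterenol; potency as antagonist that reverses NPY suppression of cAMP signal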
Neuropeptide Y receptor type 1, sequence (P25929 whole entry): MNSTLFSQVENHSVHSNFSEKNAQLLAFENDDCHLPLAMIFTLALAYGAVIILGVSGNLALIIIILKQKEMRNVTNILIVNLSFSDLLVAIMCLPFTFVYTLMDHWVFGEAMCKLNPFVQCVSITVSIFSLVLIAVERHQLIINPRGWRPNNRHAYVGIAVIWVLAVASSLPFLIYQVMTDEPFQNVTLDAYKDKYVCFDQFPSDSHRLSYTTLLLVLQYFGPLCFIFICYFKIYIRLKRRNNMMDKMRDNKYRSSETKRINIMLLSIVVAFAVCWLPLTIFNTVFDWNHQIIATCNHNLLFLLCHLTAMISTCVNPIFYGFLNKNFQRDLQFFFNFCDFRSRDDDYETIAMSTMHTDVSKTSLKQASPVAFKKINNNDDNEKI

[27] = molecular target: Neuropeptide Y receptor type 2 (Homo sapiens, UniProt P49146); format: functional, cell-based;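 further: HEK293 cells expressing the receptor and a CNG channel; stimulus was NPY near EC95 followed by isoproterenol to raise cAMP; antagonist potency measured as restoring cAMP signal that NPY suppresses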
Neuropeptide Y receptor type 2, sequence (P49146 whole entry): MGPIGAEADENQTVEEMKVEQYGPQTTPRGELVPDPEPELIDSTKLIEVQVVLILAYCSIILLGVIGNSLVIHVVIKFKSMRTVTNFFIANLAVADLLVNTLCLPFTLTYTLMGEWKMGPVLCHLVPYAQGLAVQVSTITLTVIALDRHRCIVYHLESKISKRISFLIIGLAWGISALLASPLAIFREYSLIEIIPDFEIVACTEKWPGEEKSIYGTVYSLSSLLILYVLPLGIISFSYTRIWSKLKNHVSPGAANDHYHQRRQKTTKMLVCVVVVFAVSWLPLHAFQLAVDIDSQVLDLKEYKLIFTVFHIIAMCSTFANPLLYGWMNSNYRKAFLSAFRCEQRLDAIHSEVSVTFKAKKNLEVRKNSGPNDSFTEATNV

COc1cccc(NS(=O)(=O)c2ccc3c(c2)C2C=CCC2C(c2ccc(C(=O)O)cc2)N3)c1 (stereo unspecified)
IC50 (Cysteine protease ATG4B): 10.7 µM (active)
EC50 [1]: 12.5 µM (active)
IC50 (Nonstructural protein 1): > 100 µM (active)
IC50 (SUMO-activating enzyme [2]): 2.15 µM (active)
IC50 (Bcl-2-like protein 1): 64.9 µM (not active)
AC50 [3]: 15.8 µM (active)
IC50 [4]: 7.94 µM (active)
IC50 (Genome polyprotein): 67 µM (active)
IC50 (Phospholipase A2): 10.6 µM (active)
IC50 (Large T antigen): > 100 µM (active)
IC50 (Leucine aminopeptidase): 15.8 µM (active)
IC50 (SUMO-activating enzyme [5]): 9.5 µM (active)
EC50 [6]: 18 µM (inconclusive)
IC50 [7]: 18.9 µM (not active)
IC50 [8]: 2.32 µM (active)

COc1ccc(C(=O)NCC(C)(C)SCc2c(C)cc(C)cc2C)cc1
IC50 [9]: 24.1 µM (active)
IC50 [10]: > 50 µM (not active)

Cc1cc(C(=O)CSc2nnc(-c3ccccc3F)o2)c(C)n1Cc1cccs1
EC50 (Estrogen receptor): 6.97 µM (active)

O=c1sc(N2CCN(c3ccccc3F)CC2)nc2ccsc12
EC50 [11]: 0.237 µM (active)
EC50 [12]: < 0.1 µM (inconclusive)
EC50 [13]: 0.309 µM (active)
EC50 [14]: 0.349 µM (active)

CCn1c2ccccc2c2cc(NC(=O)c3cc(OC)c(OC)c(OC)c3)ccc21
EC50 (BJ [15]): 0.165 µM (inconclusive)
IC50 [16]: 0.534 µM (active)
IC50 [17]: > 80 µM (inactive)
EC50 (BJ [18]): 0.745 µM (inconclusive)
EC50 [19]: 1 µM (active)
AC50 [20]: 25.6 µM (active)
EC50 [21]: 0.284 µM (inconclusive)
EC50 (BJ [22]): 0.184 µM (active)
EC50 [23]: 0.121 µM (active)

O=C(Nc1nnc(-c2ccc3c(c2)OCCO3)o1)C1CCCCC1
IC50 [24]: > 100 µM (active)

O=C(Nc1cccc(/N=C/c2cc(Br)cc(Br)c2O)c1)c1ccco1
AC50 [25]: 57.9 µM (active)
IC50 (H9c2): 10.8 µM (active)
IC50 [26]: > 35 µM (not active)
IC50 [27]: > 35 µM (not active)
